In patent US20190064177A1, “INCORPORATING COMPETITIVE BINDING INFORMATION INTO MOLECULAR ARRAY ANALYSIS TO GENERATE FUNCTION NETWORKS OF INTERACTIONS” (ARIZONA BOARD OF REGENTS ON BEHALF OF ARIZONA STATE …, priority 2017, published 2019):

The sequences below were run on diaphorase (assay: fluorescently labeled diaphorase binding to peptide array with or without excess FAD). Conditions: 1 micromolar labeled diaphorase, excess FAD present; 65535 is detector saturation.
Method: Measurements were performed in which diaphorase was bound to an array of about 126,000 unique sequences. The sequences were chosen simply to cover sequence space. 16 of the natural 20 amino acids were used to make up these sequences with C, I, M and T omitted. The diaphorase was fluorescently labeled and each peptide sequence feature was scanned and fluorescence recorded on the array. Diaphorase bound tightly to some peptides and not at all to others. Two different concentrations of diaphorase were used, 1 and 10 micromolar, and the diaphorase was either bound in the presence of excess FAD or not. […] Indeed the Pearson correlation coefficient between w/ and w/o FAD was >0.97, which actually speaks to the reproducibility of this dataset. However, there are some differences as shown on the scatter plot of FIG. 1. When one takes a ratio of the binding without FAD and the binding with FAD, one finds the following top 30 ratios (Table 1): Note that all these sequences end with a GSG linker sequence. Because there are two concentrations, one can easily check for consistency. Note that 65535 is detector saturation, so one has to ignore those values. For this reason, the lower concentration is used most of the time. […] It appears that this was some kind of error and was ignored in subsequent analysis. A similar conclusion can be made with the 7th highest value. Looking at the sequences, RW or at least R or K followed by a nonpolar or aromatic amino acid at the N-terminus. This is interesting as FAD is negatively charged, though the adenine in FAD looks a bit like tryptophan (see FIG. 2).

1 microM FAD (array fluorescence of bound diaphorase)	Sequence
1435	LAKQNRVEDGSS (LAKQNRVEDGSG) [array peptide with C-terminal GSG linker]
2238	VERASYNLDGSG [array peptide with C-terminal GSG linker]
4165.5	EDEGLSKFEGGSG [array peptide with C-terminal GSG linker]

Same assay, conditions: 1 micromolar labeled diaphorase, no FAD; 65535 is detector saturation

1 micro no FAD (array fluorescence of bound diaphorase)	Sequence
770.5	LAKQNRVEDGSS (LAKQNRVEDGSG) [array peptide with C-terminal GSG linker]
759	VERASYNLDGSG [array peptide with C-terminal GSG linker]
560.55	EDEGLSKFEGGSG [array peptide with C-terminal GSG linker]

Same assay, conditions: 10 micromolar labeled diaphorase, excess FAD present; 65535 is detector saturation

10 microM FAD (array fluorescence of bound diaphorase)	Sequence
3699	LAKQNRVEDGSS (LAKQNRVEDGSG) [array peptide with C-terminal GSG linker]
3374	VERASYNLDGSG [array peptide with C-terminal GSG linker]
1378.5	EDEGLSKFEGGSG [array peptide with C-terminal GSG linker]

Same assay, conditions: 10 micromolar labeled diaphorase, no FAD; 65535 is detector saturation

10 microM no FAD (array fluorescence of bound diaphorase)	Sequence
2948.5	LAKQNRVEDGSS (LAKQNRVEDGSG) [array peptide with C-terminal GSG linker]
2900.5	VERASYNLDGSG [array peptide with C-terminal GSG linker]
1220.25	EDEGLSKFEGGSG [array peptide with C-terminal GSG linker]

Same assay, conditions: ratio of binding without FAD to binding with FAD, 1 micromolar diaphorase

1 microM noFAD/FAD	Sequence
0.5369	LAKQNRVEDGSS (LAKQNRVEDGSG) [array peptide with C-terminal GSG linker]
0.3391	VERASYNLDGSG [array peptide with C-terminal GSG linker]
0.1346	EDEGLSKFEGGSG [array peptide with C-terminal GSG linker]

Same assay, conditions: ratio of binding without FAD to binding with FAD, 10 micromolar diaphorase

10 microM noFAD/FAD	Sequence
0.7971	LAKQNRVEDGSS (LAKQNRVEDGSG) [array peptide with C-terminal GSG linker]
0.8597	VERASYNLDGSG [array peptide with C-terminal GSG linker]
0.8852	EDEGLSKFEGGSG [array peptide with C-terminal GSG linker]

Same assay, conditions: ratio without/with FAD calculated from measured binding values, 1 micromolar diaphorase

Meas. ratio	Sequence
0.75	DYFEGQLNHLGGS
0.70	WHLLGWVGYGGSG [array peptide with C-terminal GSG linker]
0.74	AWVELEYQYVFEG
2.43	WRVQAWRPNKVEG
0.72	HVYGLNLFDGSG [array peptide with C-terminal GSG linker]
0.78	EGFGYLFAHVGGS
0.66	PVDFGYQLKVSGS
2.43	YRYGWQKYGGSG [array peptide with C-terminal GSG linker]
1.60	YRRFPYFPGGSG [array peptide with C-terminal GSG linker]
2.41	PQKSNHFHEAQKR
0.77	NHLLEGAFVSEGS
2.10	NRKFYWNAGGSG [array peptide with C-terminal GSG linker]
0.73	FNKVLEYKWLFEG
2.18	ARWQQYKFGGSG [array peptide with C-terminal GSG linker]
0.54	LAKQNRVEDGSS (LAKQNRVEDGSG) [array peptide with C-terminal GSG linker]
0.34	VERASYNLDGSG [array peptide with C-terminal GSG linker]
1.71	RQRYPKVSGGSG [array peptide with C-terminal GSG linker]
0.13	EDEGLSKFEGGSG [array peptide with C-terminal GSG linker]
